For data set [1], the system named is electrically induced seizures (maximum electroshock). The experiment in a line: maximum electroshock (MES) test in mice. The format is in vivo, mouse. The following applies: ip. As for the experimental part:
(§1) They were tested for their anticonvulsive action in vivo after i.p. administration using the international customary mouse animal models described in Pharmac Weekblad, Sc. Ed.
Seizures can also be induced electrically for the identification of anticonvulsant activity. This test is referred to as the MES test for identifying CNS active drugs. A […] (60 Hz) electrical current for 0.2 s is delivered by a corneal electrode to mice. The current is four to five times as large as the threshold current needed to produce the tonic seizure. These specific parameters are used to identify compounds that prevent seizure spread, therapeutic agents for generalized tonic clonic seizures. Therapeutic agents for absence of seizures are undetected. However, when the current is lowered to […], compounds which modify both seizure spread and seizure threshold are identified.
^1 MES = maximum electroshock

In data set [2] the test system is pentetrazol-induced seizures. Nature of the data set: s.c. pentetrazol (PTZ) test in mice. The format is in vivo. Conditions: mouse. Here is the method:
as §1
The most commonly used chemoconvulsant is pentetrazol which can be used as a primary screen for anticonvulsant activity when dosages that produce hindlimb tonic extension are administered. A dose of pentetrazol that produces solely clonic seizures cannot be used as primary screen for new compounds, as phenytoin and carbamazepine have no effect on the blocking of clonic seizures. This test using pentetrazol to induce seizures, used as a primary screen of anticonvulsant activity is referred to in the results below as PEZ.
^2 PTZ = S. C. pentetrazol

The subject of data set [3] is seizures (maximum electroshock model, pentetrazol test). Nature of the data set: anticonvulsive action in mouse animal models (maximum electroshock and pentetrazol). The format is in vivo. The following applies: comparison with known antiepileptics. Here is the method: They were tested for their anticonvulsive action in vivo after i.p. administration using the international customary mouse animal models described in Pharmac Weekblad, Sc. Ed. The most commonly used chemoconvulsant is pentetrazol which can be used as a primary screen for anticonvulsant activity when dosages that produce hindlimb tonic extension are administered. […] This test using pentetrazol to induce seizures, used as a primary screen of anticonvulsant activity is referred to in the results below as PEZ. Seizures can also be induced electrically for the identification of anticonvulsant activity. […] A […] (60 Hz) electrical current for 0.2 s is delivered by a corneal electrode to mice. The current is four to five times as large as the threshold current needed to produce the tonic seizure. These specific parameters are used to identify compounds that prevent seizure spread, therapeutic agents for generalized tonic clonic seizures. […] However, when the current is lowered to […], compounds which modify both seizure spread and seizure threshold are identified.

The test system of a further data set is clonic seizures. Conditions: dose of pentetrazol that produces solely clonic seizures; cited from earlier work.
Data set [4] in a line: octanol-H2O partition coefficient. The format is physicochemical. The following applies: octanol-water, read-out: Log p (octanol-H2O) partition coeff.
The next data set in a line: in vivo. The following applies: mouse, ip.
Where [5] appears, read: mouse, i.p., dose 100 mg/kg, read-out: Action % of Animals, MES.
Setting [6] is: ip, i.p., read-out: Action % of Animals, PTZ.
The mark [7] stands for this setting: mouse, i.p., read-out: Action % of Animals, MES.

Read-outs that look alike come from different tables or passages of the source.

With `NC(=O)N1c2ccccc2C=Cc2ccccc21` [Carbamazepine, reference compound], the responders at 100 mg/kg was 100% in data set [1] (setting [5]) and 0% in data set [2] (setting [6]). The “activity in maximum electroshock model or pentetrazol test” value in data set [3] is “active either in the maximum electroshock model, or in the pentetrazol test, but not in both”. The “effect on the blocking of clonic seizures” value in the data set on clonic seizures is recorded as “no effect”.
`O=C1CN(c2ccccc2Cl)C(=O)N1` [Example 1, 1-(2-chlorophenyl)imidazoline-2,4-dione]: the responders at 300 mg/kg is 100% in data set [1] (mouse, i.p., dose 300 mg/kg, read-out: Action % of Animals, MES) and 0% in data set [2] (ip, i.p., dose 300 mg/kg, read-out: Action % of Animals, PTZ). The logP in data set [4] is 0.49.
With `O=C1CN(c2cccc(Cl)c2Cl)C(=O)N1` [Example 2, 1-(2,3-dichlorophenyl)imidazoline-2,4-dione], the responders at 100 mg/kg in data set [1] (setting [5]) and in data set [2] (setting [6]) was 100% each time. Besides, in data set [4], the logP was 1.16.
Turning to `O=C1CN(c2c(Cl)cccc2Cl)C(=O)N1` [Example 3, 1-(2,6-dichlorophenyl)imidazoline-2,4-dione], in data set [1] (setting [7]), the responders at 30 mg/kg came to 100%. In data set [2] (setting [6]), the responders at 100 mg/kg was 100%. In addition, the logP in data set [4] is 0.69.
`O=C1CN(c2ccccc2F)C(=O)N1` [Example 4, 1-(2-fluorophenyl)imidazoline-2,4-dione]: the responders at 100 mg/kg in data set [1] (setting [5]) and in data set [2] (setting [6]) was 100% each time.
For `Cc1cc(Cl)ccc1N1CC(=O)NC1=O` [Example 5, 1-(4-chloro-2-methylphenol)imidazoline-2,4-dione], the responders at 30 mg/kg in data set [1] (setting [7]) and in data set [2] (setting [6]) was 100% each time. Besides, the logP in data set [4] was found to be 0.86.
As to `O=C1CN(Cc2ccccc2Cl)C(=O)N1` [Example 6, 1-(2-chlorobenzyl)imidazoline-2,4-dione], the responders at 30 mg/kg in data set [1] (setting [7]) and in data set [2] (setting [6]) was 100% each time. Besides, the logP in data set [4] was found to be 1.12.
On to `O=C1CN(Cc2c(Cl)cccc2Cl)C(=O)N1` [Example 7, 1-(2,6-dichlorobenzyl)imidazoline-2,4-dione], for which the responders at 100 mg/kg in data set [1] (setting [5]) and in data set [2] (setting [6]) was 100% each time. In data set [4], the logP turned out to be 1.44.
As a reminder, the ED50 is the midpoint of the dose-response relation. Read a low ED50 as an effect at a small dose. Regarding `O=C1CN(Cc2c(F)cccc2F)C(=O)N1` [Example 8, 1-(2,6-difluorobenzyl)imidazoline-2,4-dione], the ED50 in data set [1] (mouse) amounted to 36 mg/kg; in data set [2] (sc) it was 50 mg/kg. For the same compound, the responders at 100 mg/kg in data set [1] (setting [5]) and in data set [2] (setting [6]) was 100% each time. The logP in data set [4] came to 0.63. This compound yielded a TD50 in “in vivo” of 123 mg/kg.
Take `O=C1CN(Cc2ccccc2C(F)(F)F)C(=O)N1` [Example 9]: the responders at 30 mg/kg in data set [1] (setting [7]) and in data set [2] (setting [6]) was 100% throughout.
With `CCCC(CCC)C(=O)O` [Valproate, reference compound], the responders at 100 mg/kg is 0% in data set [1] (Mus musculus, read-out: Action % of Animals, MES) and 0% in data set [2] (setting [6]).
Take `CCCC(CCC)C(=O)O` [calcium valproate]: in data set [3], the “activity in maximum electroshock model or pentetrazol test” value is “active either in the maximum electroshock model, or in the pentetrazol test, but not in both”.
As for `O=C1NC(=O)C(c2ccccc2)(c2ccccc2)N1` [phenytoin], the “effect on the blocking of clonic seizures” value in the data set on clonic seizures is on record as “no effect”.

(Values after US5817685A, “Anticonvulsive imidazoline-2,4-diones and process for making” (Arzneimittelwerk Dresden GmbH, priority 1996, dated 1998).)
